Earlier results, collected in paper PMC2192333 (The Journal of Experimental Medicine, 1996).

Assays:
C3bi = settings: mutation in CD11b

## Asp-140GlySer to AlaGlyAla: mutation of the closely related integrin CD11b
C3bi
  binding to C3bi: abohshed binding to C3bi

## murine LFA-1: murine leukocyte integrin LFA-1
Human ICAM-1
  binding of murine LFA-1 to human ICAM-1: does not bind human ICAM-1

## CD11d/CD18: recently described fourth member of the CD18 integrins
ICAM-3
  binding to ICAM-3: high affinity
